# Test results published in publication PMC6116705, “Design, synthesis, in vitro antiproliferative activity and apoptosis-inducing studies of 1-(3′,4′,5′-trimethoxyphenyl)-3-(2′-alkoxycarbonylindolyl)-2-propen-1-one derivatives obtained by a molecular hybridisation approach” (Journal of Enzyme Inhibition and Medicinal Chemistry, 2018).
# Key:
# [1] = test system: human colon adenocarcinoma (HT29) cells; assay: Antiproliferative assay, cell counting (Coulter Counter), HT29; format: cell-based; details: HT29 cell line, ratio of IC50 values
# Description: (§1) Human cervix carcinoma (HeLa), human colon carcinoma (HT29), human breast carcinoma (MCF-7) and human lymphoma (HL-60) cells (3–5 × 10^4 cells) and a serial (five-fold) dilution of the test compounds were added to a 96-well microtiter plate. The cells were incubated for 72–96 h (depending on the tumor cell line) at 37 °C in a humidified 5% CO2 atmosphere. At the end of the incubation period, the cells were counted in a Coulter Counter (Coulter Electronics Ltd, Harpenden Herts, UK). […] The IC50 values represent the average (±standard deviation) of at least two to four independent experiments.
# [2] = test system: human promyelocytic leukemia (HL-60) cells; assay: Antiproliferative assay, cell counting (Coulter Counter), HL-60; format: cell-based; details: Homo sapiens; HL-60, 72–96 h; read-out: IC50, inhibition of proliferation
# Description: as §1
# bovine brain tubulin = assay: Inhibition of tubulin polymerisation (turbidimetric tubulin assembly); format: biochemical; details: tubulin 10 µM, 20 min at 30 °C; read-out: Tubulin assembly IC50±SD
# Description: (§2) To evaluate the effect of the compounds on tubulin assembly in vitro[40], varying concentrations of compounds were preincubated with 10 μM bovine brain tubulin in 0.8M monosodium glutamate (pH adjusted to 6.6 with HCl in a 2.0M stock solution) at 30 °C and then cooled to 0 °C. After addition of 0.4 mM GTP, the mixtures were transferred to 0 °C cuvettes in a recording spectrophotometer and warmed to 30 °C. Tubulin assembly was followed turbidimetrically at 350 nm. […] The capacity of the test compounds to inhibit colchicine binding to tubulin was measured as described. The reaction mixtures contained 1 μM tubulin, 5 μM [^3H]colchicine and 5 μM test compound.
# [3] = test system: tubulin (colchicine site); assay: Inhibition of [3H]colchicine binding to tubulin; parameters: species or system bovine; details: tubulin 1 µM, [3H]colchicine 5 µM, compound 5 µM
# Description: as §2
# [4] = test system: human myeloid leukaemia U-937 cells; assay: MTT cytotoxicity assay, U-937; format: cell-based; details: U-937, MTT, 72 h, read-out: IC50, inhibition of cell growth
# Description: (§3) U-937 (human myeloid leukaemia) cells from DSMZ (German Collection of Microorganisms and Cell Cultures, Braunschweig, Germany) and U-937 cells overexpressing human Bcl-2 protein (designated U-937/Bcl-2, donated by Dr Jacqueline Bréard, INSERM U749, Faculté de Pharmacie Paris-Sud., Châtenay-Malabry, France) were cultured in RPMI-1640 medium containing 10% (v/v) heat-inactivated foetal bovine serum, 100 μg/mL streptomycin and 100 U/mL penicillin, incubated at 37 °C in a humidified atmosphere containing 5% CO2 as described. The functioning of U-937/Bcl-2 cells was tested using the cytotoxic agent 1-β-D-arabino-furanosylcytosine as previously described. Human peripheral blood mononuclear cells (PBMC) were isolated from heparin-anticoagulated blood of healthy volunteers by centrifugation with Ficoll-Paque Plus (GE Healthcare Bio-Sciences AB, Uppsala, Sweden). PBMC were also stimulated with phytohemagglutinin (2 μg/mL) for 48 h before the experimental treatment. The trypan blue dye exclusion method was used for counting the living/dead cells by a hematocytometer with 95% viability in all experiments. The cytotoxicity of compounds was evaluated by the colorimetric 3-(4,5-dimethyl-2-thiazolyl-)-2,5-diphenyl-2H-tetrazolium bromide (MTT) assay as previously described. Briefly, 5 × 10^3 exponentially growing cells were seeded in 96-well microculture plates with increasing concentrations of compounds for 72 h. After the addition of MTT (0.5 mg/mL), cells were incubated at 37 °C for 4 h. Sodium dodecyl sulphate (10% w/v) in 0.05 M HCl was added to the wells and then incubated at room temperature overnight in the dark. Absorbance was measured at 570 nm. […] Values are mean ± SE from at least three independent experiments, each performed in triplicate. Compounds were dissolved in DMSO and kept in the dark at 25 °C.
# [5] = test system: U-937 cells overexpressing human Bcl-2 (U-937/Bcl-2); assay: MTT cytotoxicity assay, U-937/Bcl-2; format: cell-based; details: Homo sapiens, U-937, 72 h, U-937/Bcl-2, MTT, read-out: IC50, inhibition of cell growth
# Description: as §3
# U-937 cells = assay: Cell cycle phase distribution and apoptosis, flow cytometry (propidium iodide) and fluorescence microscopy, U-937; format: cell-based, human
# Description: (§4) Fluorescent microscopy and flow cytometric analysis of propidium iodide-stained cells were performed as described. Briefly, cells were harvested and fixed in 3% paraformaldehyde and incubated at room temperature for 10 min. The fixative was removed, and the cells were washed with PBS, resuspended in 30–50 μL of PBS containing 20 μg/mL bis-benzimide trihydrochloride (Hoechst 33258) and incubated at room temperature for 15 min. Stained nuclei were visualized using a Zeiss fluorescence microscope.
# (§5) Flow cytometric analysis was carried out using a BD FACSVerse™ cytometer (BD Biosciences, San Jose, CA, USA).
# U-937/Bcl-2 cells = assay: Cell cycle phase distribution and apoptosis, flow cytometry (propidium iodide) and fluorescence microscopy, U-937/Bcl-2; format: cell-based, human
# Description: as §4, §5
smiles,measurement,setting,value
"CCOC(=O)c1[nH]c2cc(OC)ccc2c1/C=C/C(=O)c1cc(OC)c(OC)c(OC)c1 [Compound 9f, (E)-Ethyl 6-methoxy-3-(3-oxo-3-(3,4,5-trimethoxyphenyl)prop-1-en-1-yl)-1H-indole-2-carboxylate]",fold more potent than CA-4,[1],8–24 fold
same,IC50,[2],5.2 ± 2.2 µM
same,IC50,bovine brain tubulin,17 ± 2 µM
same,Colchicine binding % ±SD (inhibition),[3],23 ± 1%
same,IC50,[4],6.5 ± 1.7 µM
same,IC50,[5],1 ± 0.8 µM
same,% G1,"U-937 cells; U-937, 24 h, 3 µM",42.7 ± 0.5%
same,% G2-M,"U-937 cells; U-937, 24 h, 3 µM",25.2 ± 0.1%
same,% S,"U-937 cells; U-937, 24 h, 3 µM",24.6 ± 0.8%
same,% Sub-G1,"U-937 cells; U-937, 24 h, 3 µM",5.9 ± 0.3%
same,% G1,"U-937 cells; U-937, 24 h, 10 µM",36.7 ± 1.8 %
same,% G2-M,"U-937 cells; U-937, 24 h, 10 µM",23.8 ± 0.4%
same,% S,"U-937 cells; U-937, 24 h, 10 µM",25.5 ± 0.5%
same,% Sub-G1,"U-937 cells; U-937, 24 h, 10 µM",11.9 ± 1.6 %
same,% G1,"U-937 cells; U-937, 48 h, 3 µM",51.0 ± 0.5%
same,% G2-M,"U-937 cells; U-937, 48 h, 3 µM",19.2 ± 0.5%
same,% S,"U-937 cells; U-937, 48 h, 3 µM",24.0 ± 0.3%
same,% Sub-G1,"U-937 cells; U-937, 48 h, 3 µM",5.1 ± 0.1%
same,% G1,"U-937 cells; U-937, 48 h, 10 µM",47.1 ± 1.1 %
same,% G2-M,"U-937 cells; U-937, 48 h, 10 µM",18.2 ± 0.1%
same,% S,"U-937 cells; U-937, 48 h, 10 µM",23.4 ± 0.3%
same,% Sub-G1,"U-937 cells; U-937, 48 h, 10 µM",10.1 ± 0.6 %
same,% G1,"U-937 cells; U-937, 72 h, 3 µM",53.1 ± 2.0%
same,% G2-M,"U-937 cells; U-937, 72 h, 3 µM",16.5 ± 0.6%
same,% S,"U-937 cells; U-937, 72 h, 3 µM",22.3 ± 1.4%
same,% Sub-G1,"U-937 cells; U-937, 72 h, 3 µM",6.4 ± 0.6%
same,% G1,"U-937 cells; U-937, 72 h, 10 µM",43.3 ± 1.7%
same,% G2-M,"U-937 cells; U-937, 72 h, 10 µM",15.0 ± 0.6%
same,% S,"U-937 cells; U-937, 72 h, 10 µM",21.2 ± 1.2%
same,% Sub-G1,"U-937 cells; U-937, 72 h, 10 µM",19.0 ± 3.3 %
same,% G1,"U-937/Bcl-2 cells; U-937/Bcl-2, 24 h, 0.3 µM",26.0 ± 0.9 %
same,% G2-M,"U-937/Bcl-2 cells; U-937/Bcl-2, 24 h, 0.3 µM",41.1 ± 0.4 %
same,% S,"U-937/Bcl-2 cells; U-937/Bcl-2, 24 h, 0.3 µM",25.2 ± 0.3%
same,% Sub-G1,"U-937/Bcl-2 cells; U-937/Bcl-2, 24 h, 0.3 µM",6.2 ± 0.9%
same,% G1,"U-937/Bcl-2 cells; U-937/Bcl-2, 24 h, 1 µM",17.6 ± 0.6 %
same,% G2-M,"U-937/Bcl-2 cells; U-937/Bcl-2, 24 h, 1 µM",41.0 ± 2.3 %
same,% S,"U-937/Bcl-2 cells; U-937/Bcl-2, 24 h, 1 µM",18.1 ± 0.1 %
same,% Sub-G1,"U-937/Bcl-2 cells; U-937/Bcl-2, 24 h, 1 µM",20.6 ± 1.6 %
same,% G1,"U-937/Bcl-2 cells; U-937/Bcl-2, 48 h, 0.3 µM",27.4 ± 0.8 %
same,% G2-M,"U-937/Bcl-2 cells; U-937/Bcl-2, 48 h, 0.3 µM",31.6 ± 0.3 %
same,% S,"U-937/Bcl-2 cells; U-937/Bcl-2, 48 h, 0.3 µM",26.3 ± 0.4%
same,% Sub-G1,"U-937/Bcl-2 cells; U-937/Bcl-2, 48 h, 0.3 µM",11.1 ± 0.1 %
same,% G1,"U-937/Bcl-2 cells; U-937/Bcl-2, 48 h, 1 µM",16.0 ± 0.0 %
same,% G2-M,"U-937/Bcl-2 cells; U-937/Bcl-2, 48 h, 1 µM",28.4 ± 1.8 %
same,% S,"U-937/Bcl-2 cells; U-937/Bcl-2, 48 h, 1 µM",16.5 ± 1.0 %
same,% Sub-G1,"U-937/Bcl-2 cells; U-937/Bcl-2, 48 h, 1 µM",30.2 ± 3.3 %
same,% G1,"U-937/Bcl-2 cells; U-937/Bcl-2, 72 h, 0.3 µM",30.3 ± 2.9 %
same,% G2-M,"U-937/Bcl-2 cells; U-937/Bcl-2, 72 h, 0.3 µM",29.4 ± 2.0 %
same,% S,"U-937/Bcl-2 cells; U-937/Bcl-2, 72 h, 0.3 µM",23.8 ± 0.7%
same,% Sub-G1,"U-937/Bcl-2 cells; U-937/Bcl-2, 72 h, 0.3 µM",11.8 ± 0.5 %
same,% G1,"U-937/Bcl-2 cells; U-937/Bcl-2, 72 h, 1 µM",14.0 ± 0.6 %
same,% G2-M,"U-937/Bcl-2 cells; U-937/Bcl-2, 72 h, 1 µM",22.7 ± 0.2%
same,% S,"U-937/Bcl-2 cells; U-937/Bcl-2, 72 h, 1 µM",17.1 ± 1.4%
same,% Sub-G1,"U-937/Bcl-2 cells; U-937/Bcl-2, 72 h, 1 µM",37.7 ± 1.5 %
